This assay relates to Hypoxylon sp. CI-4. Put plainly: Response of Hypoxylon sp. CI-4 to epigenetic modifying agents. The class given is cell-based. The conditions noted are these: lower concentrations seemingly ineffective. The source says: The wild-type Hypoxylon sp. had previously been found as an endophyte in Persea indica growing in the Laurisilva, Tenerife, Spain (Tomsheck et al., 2010, Microb Ecol 60:903-914). The fungus, growing on potato dextrose agar (PDA), was hyphal tipped in order to obtain a genetically pure strain, CI-4. This strain was used for epigenetic modulation using a histone deacetylase inhibitor, suberoylanilide hydroxamic acid (SAHA) and a DNA methyltransferase inhibitor, 5-azacytidine (AZA) as the modulating compounds (Cichewicz, 2010, Nat Prod Rep 27:11-22). Stock solutions of these compounds were prepared in DMSO and sterile deionized water, respectively. The fungus was grown on PDA supplemented with different concentrations of the epigenetic modulators (1, 5, 10, 20, 30, 50 and 100 μM) for 15 days. The numerous variants resulting from concentrations of modulators producing the most notable cultural, biological and VOC changes were selected for future study. The strains studied here were CI-4 (wild-type), CI4-B (strain selected after a 15 day exposure of CI-4 to 50 μM SAHA, hyphal tipped, transferred to PDA and studied without subsequent exposure to SAHA), CI4-SAHA (strain CI-4 exposed to 50 μM SAHA in all studies), and CI4-AZA (strain CI-4 exposed to 100 μM AZA in all studies).
Successful attempts were made to acquire a response of Hypoxylon sp. […]

The record followed here is US20130137131A1, “System and Method of Producing Volatile Organic Compounds from Fungi” (priority 2010, published 2013).

For the molecule `O=C(CCCCCCC(=O)Nc1ccccc1)NO` [SAHA, N-hydroxy-N′-phenyl-octanediamide], the “Changes in the morphology and bioactivities of the cultures” value (growth of strain CI-4 on PD broth with 50 μM SAHA) was “the most striking changes in the morphology and bioactivities of the cultures”.
With `Nc1ncn([C@@H]2O[C@H](CO)[C@@H](O)[C@H]2O)c(=O)n1` [AZA, 4-amino-1-(β-D-ribofuranosyl)-1,3,5-triazin-2(1H)-one], the “Changes in the morphology and bioactivities of the cultures” value (growth of strain CI-4 on PD broth with 100 μM AZA) was “the most striking changes in the morphology and bioactivities of the cultures”.
